Measurements from patent US20230257351A1, “SUBSTITUTED N-[…] HAVING P2X4 RECEPTOR ANTAGONISTIC ACTIVITY” (Bayer Aktiengesellschaft, priority 2020, published 2023).

Experiments:
human P2X4 = molecular target: T1, human P2X4 (Homo sapiens, UniProt Q99571); assay: Human P2X4 HEK Cell FLIPR Assay; format: cell-based; settings: HEK293 stably expressing human P2X4, agonist Bz-ATP 3 μM (EC80); for IC50: read-out: Human P2X4 HEK Cells (FLIPR Assay) avg IC50
T1 construct: expressed in transfected cells
T1 sequence (Q99571 1-388): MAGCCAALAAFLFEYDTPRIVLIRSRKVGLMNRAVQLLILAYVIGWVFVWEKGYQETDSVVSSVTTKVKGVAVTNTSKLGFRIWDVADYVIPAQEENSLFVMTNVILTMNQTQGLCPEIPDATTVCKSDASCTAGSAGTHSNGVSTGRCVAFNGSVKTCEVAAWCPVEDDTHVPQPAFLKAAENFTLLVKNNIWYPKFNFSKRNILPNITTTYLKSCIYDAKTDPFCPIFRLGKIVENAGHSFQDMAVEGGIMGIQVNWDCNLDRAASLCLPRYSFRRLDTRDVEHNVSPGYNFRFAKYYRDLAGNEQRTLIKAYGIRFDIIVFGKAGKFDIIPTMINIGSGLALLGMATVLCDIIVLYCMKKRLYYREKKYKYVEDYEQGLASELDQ
In short: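 HEK293 cells stably expressing human P2X4 were loaded with Fluo8-AM (30 min, 37 °C, HBSS/HEPES pH 7.4 with probenecid), then preincubated 30 min at room temperature with compound, 25 μM–1 nM final, 0.5% DMSO. Bz-ATP-evoked calcium fluorescence was read on FLIPR; data were normalized to agonist control and given a four-parameter fit for IC50.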

rat P2X4 = molecular target: T2, rat P2X4 (Rattus norvegicus, UniProt P51577); assay: FLIPR Method for Rat P2X4 1321N1 Astrocytoma Cells; format: cell-based; settings: 1321N1 stably expressing rat P2X4; agonist MgATP 5 μM (EC80)
T2 construct: expressed in transfected cells
T2 sequence (P51577 1-388): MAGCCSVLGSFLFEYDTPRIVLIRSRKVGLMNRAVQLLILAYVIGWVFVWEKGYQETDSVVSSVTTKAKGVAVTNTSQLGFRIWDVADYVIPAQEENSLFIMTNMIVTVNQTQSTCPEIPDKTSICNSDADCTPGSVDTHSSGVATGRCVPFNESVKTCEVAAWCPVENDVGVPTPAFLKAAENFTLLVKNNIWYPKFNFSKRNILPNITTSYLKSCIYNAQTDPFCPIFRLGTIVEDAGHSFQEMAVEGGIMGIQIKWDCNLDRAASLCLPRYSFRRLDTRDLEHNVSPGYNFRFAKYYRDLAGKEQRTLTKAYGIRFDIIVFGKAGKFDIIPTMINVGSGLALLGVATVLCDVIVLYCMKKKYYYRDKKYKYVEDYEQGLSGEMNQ
Experimental: Compounds were tested on a 1321N1 cell line stably expressing rat P2X4. Cells were cultured on collagen-I-coated 384-well plates at a density of 10,000 cells/well and incubated overnight at 37° C., 5% CO2. P2X4 function was assessed by measuring intracellular calcium fluxes caused by Magnesium-ATP (MgATP) using the calcium-chelating dye Fluo8-AM (Molecular Devices) with the Fluorescent Imaging Plate Reader Tetra (FLIPR^Tetra; Molecular Devices CA). On the day of the assay, the medium was removed and the cells were incubated for 30 minutes at 37° C. and 5% CO2 in 30 μl of dye buffer (Hank's balanced salt solution, 10 mM HEPES, 1.8 mM CaCl2, 1 mM MgCl2, 2 mM probenecid, 5 mM D-glucose monohydrate, 5 μM Fluo8-AM, pH=7.4).
Compounds diluted in probenecid buffer (Hank's balanced salt solution, 10 mM HEPES, 1.8 mM CaCl2, 1 mM MgCl2, 2 mM probenecid, 5 mM D-glucose monohydrate, pH=7.4) at ten concentrations ranging from 25 μM to 1 nM (final concentration) were dispensed and incubated for 30 minutes at room temperature. The agonist, MgATP (Sigma-Aldrich Chemie GmbH, DE), was added at a final concentration of 5 μM, representing the EC80 routinely determined. The final assay volume was 50 μl and final DMSO concentration was 0.5%.
The fluorescence intensity reflecting intracellular calcium changes was recorded before and after MgATP addition, at an excitation and emission wavelengths of 470-495 nm and 515-575 nm respectively.
The compounds were tested in triplicates and fluorescence intensity raw data normalized to the agonist control and fitted to the four-parameter logistic equation:
Y=Bottom+(Top−Bottom)/(1+10^((Log IC50−X)*HillSlope))
Assay plate acceptance was based on the signal window (S/B)[…] and the reference compound pIC50 within ±[…] the mean of historic pIC50 of the compound. Failure to meet two of the three criteria determined exclusion of the plate's results. In Table 10 below the results for the assays are reported

| Compound | Human P2X4 HEK Cells (FLIPR Assay) avg Efficacy (human P2X4) | IC50 (human P2X4) | IC50 (rat P2X4) | Rat P2X4 1321N1 Astrocytoma Cells (FLIPR Assay) avg Efficacy (rat P2X4) |
| --- | --- | --- | --- | --- |
| CC(=O)N(c1ccc(F)cc1)c1cc(NC(=O)Cc2c(F)cccc2Cl)ccn1 [Example 40, N-{4-[2-(2-chloro-6-fluorophenyl)acetamido]pyridin-2-yl}-N-(4-fluorophenyl)acetamide] | 90% | 308 nM | 194 nM | 75% |
| COc1ccc(N(C(C)=O)c2cc(NC(=O)Cc3c(Cl)cccc3Cl)ccn2)cc1F [Example 80, N-{4-[2-(2,6-dichlorophenyl)acetamido]pyridin-2-yl}-N-(3-fluoro-4-methoxyphenyl)acetamide] | 99% | 451 nM | 338 nM | 97% |
| CC(=O)N(c1ccc(F)c(F)c1)c1cc(NC(=O)Cc2c(C)cccc2C)ccn1 [Example 66, N-(3,4-difluorophenyl)-N-{4-[2-(2,6-dimethylphenyl)acetamido]pyridin-2-yl}acetamide] | 90% | 303 nM | 64.2 nM | 73% |
| CC(=O)N(c1ccc(C)cc1)c1cc(NC(=O)Cc2cccc(F)c2Cl)ccn1 [Example 45, N-{4-[2-(2-chloro-3-fluorophenyl)acetamido]pyridin-2-yl}-N-(4-methylphenyl)acetamide] | 102% | 485 nM | 1180 nM | 100% |
| CC(=O)N(c1cc(F)cc(F)c1)c1cc(NC(=O)Cc2c(C)cccc2C)ccn1 [Example 85, N-(3,5-difluorophenyl)-N-{4-[2-(2,6-dimethylphenyl)acetamido]pyridin-2-yl}acetamide] | 98% | 251 nM | 229 nM | 97% |
| COc1ccc(N(C(C)=O)c2cc(NC(=O)Cc3ccccc3Cl)ccn2)cc1F [Example 77, N-{4-[2-(2-chlorophenyl)acetamido]pyridin-2-yl}-N-(3-fluoro-4-methoxyphenyl)acetamide] | 94% | 354 nM | 993 nM | 84% |
| CC(=O)N(c1ccc(F)cc1)c1cc(NC(=O)Cc2c(F)cc(F)cc2Cl)ccn1 [Example 41, N-{4-[2-(2-chloro-4,6-difluorophenyl)acetamido]pyridin-2-yl}-N-(4-fluorophenyl)acetamide] | 94% | 589 nM | 115 nM | 91% |
| CCCC(=O)N(c1ccc(F)cc1)c1cc(NC(=O)Cc2c(Cl)cccc2Cl)ccn1 [Example 144, N-{4-[2-(2,6-dichlorophenyl)acetamido]pyridin-2-yl}-N-(4-fluorophenyl)butanamide] | 90% | 648 nM | 557 nM | 100% |
| CC(=O)N(c1ccc(F)c(C#N)c1)c1cc(NC(=O)Cc2c(Cl)cccc2Cl)ccn1 [Example 24, N-(3-cyano-4-fluorophenyl)-N-{4-[2-(2,6-dichlorophenyl)acetamido]pyridin-2-yl}acetamide] | 100% | 346 nM | 174 nM | 99% |
| CC(=O)N(c1ccc(F)cc1)c1cc(NC(=O)Cc2c(Cl)cccc2Cl)ccn1 [Example 38, N-{4-[2-(2,6-dichlorophenyl)acetamido]pyridin-2-yl}-N-(4-fluorophenyl)acetamide] | 96% | 232 nM | 136 nM | 98% |
| CCCC(=O)N(c1ccc(F)cc1)c1cc(NC(=O)Cc2ccc(F)cc2Cl)ccn1 [Example 141, N-{4-[2-(2-chloro-4-fluorophenyl)acetamido]pyridin-2-yl}-N-(4-fluorophenyl)butanamide] | 99% | 891 nM | 726 nM | 100% |
| CCCC(=O)N(c1ccc(F)cc1)c1cc(NC(=O)Cc2c(F)cccc2Cl)ccn1 [Example 142, N-{4-[2-(2-chloro-6-fluorophenyl)acetamido]pyridin-2-yl}-N-(4-fluorophenyl)butanamide] | 86% | 796 nM | 767 nM | 98% |
| CC(=O)N(c1cccc(C(F)F)c1)c1cc(NC(=O)Cc2cccc(F)c2Cl)ccn1 [Example 4, N-{4-[2-(2-chloro-3-fluorophenyl)acetamido]pyridin-2-yl}-N-[3-(difluoromethyl)phenyl]acetamide] | 100% | 397 nM | 855 nM | 100% |
| COc1cccc(N(C(C)=O)c2cc(NC(=O)Cc3ccccc3Cl)ccn2)c1 [Example 100, N-{4-[2-(2-chlorophenyl)acetamido]pyridin-2-yl}-N-(3-methoxyphenyl)acetamide] | 98% | 408 nM | 965 nM | 98% |
| CC(=O)N(c1cccc(C#N)c1)c1cc(NC(=O)Cc2c(F)cccc2Cl)ccn1 [Example 15, N-{4-[2-(2-chloro-6-fluorophenyl)acetamido]pyridin-2-yl}-N-(3-cyanophenyl)acetamide] | 94% | 408 nM | 441 nM | 88% |
| CC(=O)N(c1ccc(F)c(C#N)c1)c1cc(NC(=O)Cc2ccccc2Cl)ccn1 [Example 21, N-{4-[2-(2-chlorophenyl)acetamido]pyridin-2-yl}-N-(3-cyano-4-fluorophenyl)acetamide] | 91% | 343 nM | 374 nM | 90% |
| CC(=O)N(c1ccc(F)cc1)c1cc(NC(=O)Cc2c(Cl)cc(F)cc2Cl)ccn1 [Example 39, N-{4-[2-(2,6-dichloro-4-fluorophenyl)acetamido]pyridin-2-yl}-N-(4-fluorophenyl)acetamide] | 100% | 335 nM | 152 nM | 98% |
| CC(=O)N(c1cc(NC(=O)Cc2cccc(F)c2Cl)ccn1)c1cc(F)ccc1Cl [Example 113, N-(2-chloro-5-fluorophenyl)-N-{4-[2-(2-chloro-3-fluorophenyl)acetamido]pyridin-2-yl}acetamide] | 97% | 286 nM | 567 nM | 100% |
| CC(=O)N(c1ccc(F)c(Cl)c1)c1cc(NC(=O)Cc2ccccc2Cl)ccn1 [Example 50, N-(3-chloro-4-fluorophenyl)-N-{4-[2-(2-chlorophenyl)acetamido]pyridin-2-yl}acetamide] | 95% | 351 nM | 213 nM | 96% |
